Here are results for one molecule from patent publication US20140314847A1, “CONTROLLED RELEASE PHARMACEUTICAL COMPOSITIONS WITH IMPROVED BIOAVAILABILILTY” (priority 2004, published 2014).

The series is described as follows: In vitro dissolution study of acyclovir solubilized using various solubilizers. Type of series: physicochemical. The method, then:
A solubilizing agent was melted in a container and a drug was added and mixed intimately and cooled to room temperature. The mass was sifted through an appropriate sieve to get a uniform blend. A blend of the drug was prepared using polyethylene glycol 6000, Lutrol F127 and Gelucire (50/13). Solid dispersion of the drug with various solubilizing agents like polyethylene glycol 6000, Lutrol F127 and Gelucire 50/13 were studied for their solubility in 900 ml distilled water. […] Also with Lutrol in ratio (1:0.5 to 1:2) a three-fold increase in instantaneous solubility was observed. These samples were taken for dissolution study and the result obtained are provided in Table 3 hereunder and graphically depicted in Figure-I: […]

As to `Nc1nc2c(ncn2COCCO)c(=O)[nH]1` [Acyclovir as is, Acyclovir], the “% drug dissolved” value is listed as 0% (0 min); 16.03% (5 min); 19.58% (10 min); 24.09% (15 min); 29.34% (20 min); 33.89% (30 min). In addition, the “% drug dissolved” value reads like this: (45 min) 47.11%; (60 min) 53.78%; (90 min) 68.87%; (120 min) 75.40%.
